The source of these data is publication PMC11002876, “KcsA-Kv1.x chimeras with complete ligand-binding sites provide improved predictivity for screening selective Kv1.x blockers” (The Journal of Biological Chemistry, 2024).

Entries after “also recorded” stand apart in the source; their conditions may differ. Where a SMILES comes first, the peptide text is derived from it.

The subject of assay [1] is human Kv1.3 channel (hKv1.3). It is filed as cell-based. The conditions noted are these: native peptides at 0.1 nM; human lymphocytes; Figs. 6A, S1. Here is the method: Human Kv1.3 currents were recorded from activated peripheral blood mononuclear cells (see below) 3 to 4 days after activation. Heparinized human peripheral venous blood was obtained from healthy volunteers. Mononuclear cells were separated through Histopaque-1077 density gradient centrifugation. Collected cells were washed twice with Ca^2+- and Mg^2+-free Hanks’ solution containing 25 mM Hepes buffer, pH 7.4. Cells were cultured for 3 to 4 days in 24-well culture plates in a 5% CO2 incubator at 37 °C, in RPMI 1640 medium supplemented with 10% fetal calf serum (Sigma-Aldrich), 100 μg/ml penicillin, 100 μg/ml streptomycin, and 2 mM L-glutamine (density, 0.5 × 10^6 cells per ml). Phytohemagglutinin A (Sigma-Aldrich) was added to the medium at 10 μg/ml to amplify the Kv1.3 expression. Cells were washed gently twice with 2 ml of ECS for the patch-clamp experiments.
Conventional whole-cell patch-clamp electrophysiology was used to record ionic currents. Micropipettes were pulled from GC150F-7.5 borosilicate capillaries (Harvard Apparatus) with tip diameters between 0.5 and 1 μm resulting in a tip resistance of 2 to 8 MΩ in the extracellular (bath) solution. All measurements were carried out by using Axopatch 200B amplifier connected to a personal computer using Axon Digidata 1550A data acquisition hardware and Pclamp10.7 software (https://support.moleculardevices.com/s/article/Axon-pCLAMP-10-Electrophysiology-Data-Acquisition-Analysis-Software-Download-Page). The holding potential was −120 mV. Records were discarded when leak at the holding potential was >10% of peak current at the test potential. Experiments were performed at room temperature (20–24 °C). Before analysis, whole-cell current traces were corrected for ohmic leakage and digitally filtered with a three-point boxcar smoothing filter.
Solutions: all salts and components of the solutions were purchased from Sigma Aldrich. […]
(§1) Native peptides, phage-expressed peptides, and positive controls used for them were dissolved in ECS supplemented with 0.1 mg/ml bovine serum albumin (BSA; Sigma-Aldrich Hungary). Bath perfusion around the measured cell with different extracellular solutions was achieved using a gravity flow micro perfusion system using a rate of 0.5 ml/min. […]
(§2) Voltage protocols: For measurement of Kv1.1 to 1.3 currents, voltage steps to +50 mV were applied from a holding potential of −120 mV and the peak current was measured every 15 s. […] The remaining current fraction at a given molar concentration was calculated as I/I0, where I0 is the peak current in the absence and I is the peak current at equilibrium block or […] after ∼2 min perfusion by the investigated peptide/phage.

Assay [2] deals with human Kv1.1 channel (hKv1.1). The experiment in a line: Whole-cell patch-clamp, hKv1.1-expressing CHO cells. It is filed as cell-based. The conditions noted are these: see Table 1 and Fig. S3; 1 nM peptide in patch-clamp. Here is the method:
Chinese Hamster Ovarian cells were grown in Dulbecco’s modified Eagle’s medium–high glucose supplemented with 10% FBS, 2 mM L-glutamine, 100 U/ml penicillin-g, and 100 μg/ml streptomycin (Invitrogen) at 37 °C in a 5% CO2 and 95% air humidified atmosphere. Cells were passaged twice per week following a 5 min incubation in PBS containing 0.2 g/L EDTA. Chinese Hamster Ovarian cells were transiently transfected with plasmids encoding human Kv1.1 (hKCNA1 gene) and human Kv1.2 (hKCNA2 gene) in pCMV6-AC-GFP plasmid (RG211000 and RC222200, OriGene Technologies) using Lipofectamine 2000 (Invitrogen) following the manufacturer’s protocol, then cultured under standard conditions. Transfected cells were washed twice with 2 ml of extracellular solution (ECS, see below) and replated onto 35 mm polystyrene cell culture dishes (Cellstar, Greiner Bio-One) before the patch-clamp experiments. […] In general, currents were recorded 24 to 36 h after transfection.
Conventional whole-cell patch-clamp electrophysiology was used to record ionic currents. Micropipettes were pulled from GC150F-7.5 borosilicate capillaries (Harvard Apparatus) with tip diameters between 0.5 and 1 μm resulting in a tip resistance of 2 to 8 MΩ in the extracellular (bath) solution. […]
as §1, §2

`CC[C@H](C)[C@@H]1NC(=O)CNC(=O)[C@H](Cc2ccccc2)NC(=O)[C@H](CCC(N)=O)NC(=O)[C@H](C)NC(=O)[C@H](CCCCN)NC(=O)[C@@H]2CSSC[C@@H](C(=O)N[C@@H](Cc3ccc(O)cc3)C(=O)N3CCC[C@H]3C(=O)N[C@@H](Cc3c[nH]cn3)C(=O)O)NC(=O)[C@H](CCCCN)NC(=O)[C@@H]3CSSC[C@H](NC(=O)[C@H](CCC(N)=O)NC(=O)[C@H](CCCCN)NC(=O)[C@@H]4CCCN4C(=O)[C@H](CO)NC(=O)[C@H]([C@@H](C)O)NC(=O)[C@@H](NC(=O)[C@H](CCCCN)NC(=O)[C@@H](NC(=O)[C@H](CC(=O)O)NC(=O)[C@@H](NC(=O)[C@@H](NC(=O)[C@@H](N)[C@@H](C)O)C(C)C)[C@@H](C)CC)C(C)C)CSSC[C@H](NC(=O)[C@H](CCCCN)NC(=O)[C@H](C)NC(=O)CNC(=O)[C@H](C)NC(=O)[C@H](CCCNC(=N)N)NC1=O)C(=O)N[C@@H](CCSC)C(=O)N[C@@H](CC(N)=O)C(=O)NCC(=O)N[C@@H](CCCCN)C(=O)N3)C(=O)N[C@@H](CC(C)C)C(=O)N1CCC[C@H]1C(=O)N1CCC[C@H]1C(=O)N2` [HgTx1, Hongotoxin-1] (HELM PEPTIDE1{T.V.I.D.V.K.C.T.S.P.K.Q.C.L.P.P.C.K.A.Q.F.G.I.R.A.G.A.K.C.M.N.G.K.C.K.C.Y.P.H}$PEPTIDE1,PEPTIDE1,7:R3-29:R3|PEPTIDE1,PEPTIDE1,13:R3-34:R3|PEPTIDE1,PEPTIDE1,17:R3-36:R3$$$V2.0; N-terminus and C-terminus assumed): the “rank order of blocking of native Kv1.3” value in assay [1] was “Vm24 > HgTX1 > KTX1”.
On to `CC[C@H](C)[C@H](NC(=O)[C@H](CCC(=O)O)NC(=O)[C@@H](NC(=O)CN)C(C)C)C(=O)N[C@@H](CC(N)=O)C(=O)N[C@H](C(=O)N[C@@H](CCCCN)C(=O)N[C@H]1CSSC[C@@H]2NC(=O)[C@H](CCCCN)NC(=O)CNC(=O)[C@H](Cc3ccccc3)NC(=O)[C@H](CCCNC(=N)N)NC(=O)[C@H](CCSC)NC(=O)CNC(=O)[C@H](C)NC(=O)[C@H](CC(=O)O)NC(=O)[C@H](CCCCN)NC(=O)[C@@H]3CSSC[C@@H](C(=O)N[C@H](C(=O)N4CCC[C@H]4C(=O)N[C@@H](CCCCN)C(=O)O)[C@@H](C)O)NC(=O)[C@H](Cc4c[nH]cn4)NC(=O)[C@H](CSSC[C@H](NC(=O)[C@H](CCC(N)=O)NC(=O)[C@@H]4CCCN4C(=O)[C@H](CO)NC(=O)CNC(=O)[C@H](CO)NC1=O)C(=O)N[C@@H](CC(C)C)C(=O)N[C@@H](CCCCN)C(=O)N1CCC[C@H]1C(=O)N3)NC(=O)[C@H](CCCCN)NC(=O)[C@H](CCCNC(=N)N)NC(=O)[C@H](CC(N)=O)NC(=O)[C@H](CCSC)NC2=O)C(C)C` [KTX1, Kaliotoxin-1], for which the “rank order of blocking of native Kv1.3” value in assay [1] is on record as “Vm24 > HgTX1 > KTX1”. The “potency ranking, Kv1.1” value in assay [2] is “ShK > KTX1 >> MTX; also recorded: ShK > KTX1 > MTX”.
With `CC[C@H](C)[C@@H]1NC(=O)[C@@H]2CSSC[C@H](NC(=O)[C@H](CO)NC(=O)[C@@H](N)C(C)C)C(=O)N[C@@H]([C@@H](C)O)C(=O)NCC(=O)N[C@@H](CO)C(=O)N[C@@H](CCCCN)C(=O)N[C@@H](CC(=O)O)C(=O)N[C@@H](CSSC[C@@H](C(=O)N[C@@H](CCCCN)C(=O)N[C@H]3CSSC[C@@H](C(N)=O)NC(=O)CNC(=O)[C@H](Cc4ccc(O)cc4)NC3=O)NC(=O)[C@H](CO)NC(=O)[C@H](CCCCN)NC(=O)[C@H](CC(N)=O)NC1=O)C(=O)N[C@@H](Cc1ccc(O)cc1)C(=O)N[C@@H](C)C(=O)N1CCC[C@H]1C(=O)N[C@H]1CSSC[C@H](NC(=O)CNC(=O)[C@H]([C@@H](C)O)NC(=O)[C@H](CCC(N)=O)NC(=O)[C@H](CCCCN)NC(=O)[C@H](CCCNC(=N)N)NC1=O)C(=O)N1CCC[C@H]1C(=O)N[C@@H](CC(N)=O)C(=O)N[C@@H](C)C(=O)N[C@@H](CCCCN)C(=O)N2` [MTX, Maurotoxin] (HELM PEPTIDE1{V.S.C.T.G.S.K.D.C.Y.A.P.C.R.K.Q.T.G.C.P.N.A.K.C.I.N.K.S.C.K.C.Y.G.C.[am]}$PEPTIDE1,PEPTIDE1,3:R3-24:R3|PEPTIDE1,PEPTIDE1,9:R3-29:R3|PEPTIDE1,PEPTIDE1,13:R3-19:R3|PEPTIDE1,PEPTIDE1,31:R3-34:R3$$$V2.0; N-terminus and C-terminus assumed), the “potency ranking, Kv1.1” value in assay [2] was “ShK > KTX1 >> MTX; also recorded: ShK > KTX1 > MTX”.
With `CC[C@H](C)[C@@H]1NC(=O)[C@@H](NC(=O)[C@H](CO)NC(=O)[C@@H](N)CCCNC(=N)N)CSSC[C@@H](C(=O)O)NC(=O)[C@H]([C@@H](C)O)NC(=O)CNC(=O)[C@@H]2CSSC[C@@H]3NC(=O)[C@H](CCC(N)=O)NC(=O)[C@H](Cc4ccccc4)NC(=O)[C@H](C)NC(=O)[C@H]([C@@H](C)O)NC(=O)[C@H](CSSC[C@H](NC(=O)[C@H](Cc4ccccc4)NC(=O)[C@H](CO)NC(=O)[C@H](CC(C)C)NC(=O)[C@H](CCCNC(=N)N)NC(=O)[C@H](Cc4ccc(O)cc4)NC(=O)[C@H](CCCCN)NC(=O)[C@H](CCSC)NC(=O)[C@H](CO)NC(=O)[C@H](Cc4c[nH]cn4)NC(=O)[C@H](CCCCN)NC3=O)C(=O)N[C@@H](CCCNC(=N)N)C(=O)N[C@@H](CCCCN)C(=O)N[C@@H]([C@@H](C)O)C(=O)N2)NC(=O)[C@H](CCCNC(=N)N)NC(=O)[C@H](CO)NC(=O)[C@H](CCCCN)NC(=O)[C@@H]2CCCN2C(=O)[C@H]([C@@H](C)CC)NC(=O)[C@H]([C@@H](C)O)NC(=O)[C@H](CC(=O)O)NC1=O` [ShK, Stichodactyla toxin], the “potency ranking, Kv1.1” value in assay [2] is “ShK > KTX1 >> MTX; also recorded: ShK > KTX1 > MTX”.
On to `CC[C@H](C)[C@H](NC(=O)[C@H](C)NC(=O)[C@H](C)NC(=O)[C@H](C)N)C(=O)N[C@@H](CO)C(=O)N[C@H]1CSSC[C@@H]2NC(=O)[C@H](CCCCN)NC(=O)CNC(=O)[C@H](CC(N)=O)NC(=O)[C@H](CCCCN)NC(=O)[C@@H]3CSSC[C@@H](C(N)=O)NC(=O)[C@H](Cc4ccc(O)cc4)NC(=O)[C@H](Cc4ccc(O)cc4)NC(=O)[C@@H]4CSSC[C@H](NC(=O)[C@H](CCCCN)NC(=O)[C@@H]5CCCN5C(=O)[C@@H]5CCCN5C(=O)[C@H](CSSC[C@H](NC(=O)[C@H](CCCCN)NC(=O)[C@H](CCCNC(=N)N)NC(=O)[C@H](CC(N)=O)NC(=O)[C@H](CCSC)NC2=O)C(=O)N[C@@H](CCCCN)C(=O)N4)NC(=O)[C@H](CCC(=O)O)NC(=O)[C@@H]2CCCN2C(=O)[C@H](CO)NC(=O)CNC(=O)[C@H](C(C)C)NC1=O)C(=O)N[C@@H](CCCNC(=N)N)C(=O)N[C@@H](C)C(=O)N[C@@H](CCC(N)=O)C(=O)NCC(=O)N3` [Vm24, Vm24 toxin], for which, in assay [1], the “rank order of blocking of native Kv1.3” value is listed as “Vm24 > HgTX1 > KTX1”.
